Data: EP1382597A2, “Steroid receptor modulator compounds and methods” (LIGAND PHARMACEUTICALS, INC., priority 1994, dated 1996)

Experiments:
[1] = biological target: T1, AR (Homo sapiens, UniProt P10275); experiment: Co-transfection assay, AR antagonist activity; type: cell-based
T1 construct: expressed in transfected cells; host or cells: CV-1 cells, transient transfection

[2] = biological target: T1, AR; experiment: Co-transfection assay, AR agonist activity; type: cell-based
[3] = biological target: T2, human PR-B (Homo sapiens, UniProt P06401); experiment: Co-transfection assay, PR antagonist activity; type: cell-based;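 also: monkey kidney fibroblasts co-transfected with receptor expression plasmid and hormone-responsive luciferase reporter, antagonism read as reduced luciferase signal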
T2 construct: expressed in transfected cells; host or cells: CV-1 cells (African green monkey kidney fibroblasts), transient transfection
T2 sequence (P06401 1-933): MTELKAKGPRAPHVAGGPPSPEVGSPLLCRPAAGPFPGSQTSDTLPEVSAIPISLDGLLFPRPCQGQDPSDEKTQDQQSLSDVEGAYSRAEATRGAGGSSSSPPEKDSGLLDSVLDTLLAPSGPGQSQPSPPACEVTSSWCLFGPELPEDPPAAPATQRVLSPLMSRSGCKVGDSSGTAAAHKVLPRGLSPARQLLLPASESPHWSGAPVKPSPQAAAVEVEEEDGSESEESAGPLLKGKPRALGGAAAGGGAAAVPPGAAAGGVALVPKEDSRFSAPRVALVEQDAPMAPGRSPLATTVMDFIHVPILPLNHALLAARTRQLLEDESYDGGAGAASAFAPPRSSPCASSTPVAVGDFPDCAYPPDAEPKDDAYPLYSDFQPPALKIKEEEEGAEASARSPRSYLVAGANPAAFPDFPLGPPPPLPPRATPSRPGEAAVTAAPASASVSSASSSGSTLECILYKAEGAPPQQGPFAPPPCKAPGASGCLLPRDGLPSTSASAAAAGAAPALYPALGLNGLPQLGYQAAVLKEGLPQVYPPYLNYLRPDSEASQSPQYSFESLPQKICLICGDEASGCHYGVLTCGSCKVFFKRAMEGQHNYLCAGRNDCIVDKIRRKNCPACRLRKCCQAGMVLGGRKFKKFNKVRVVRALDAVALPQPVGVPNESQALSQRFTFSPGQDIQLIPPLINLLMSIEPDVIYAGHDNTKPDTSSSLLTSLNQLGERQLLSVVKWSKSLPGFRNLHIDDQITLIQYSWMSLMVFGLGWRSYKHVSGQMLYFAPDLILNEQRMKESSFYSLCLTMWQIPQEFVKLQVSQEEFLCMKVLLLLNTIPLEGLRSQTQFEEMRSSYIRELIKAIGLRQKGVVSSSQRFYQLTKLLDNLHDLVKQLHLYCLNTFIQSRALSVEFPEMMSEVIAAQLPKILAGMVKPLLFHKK

[4] = biological target: T2, human PR-B; experiment: Co-transfection assay, PR agonist activity; type: cell-based;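 also: CV-1 cells (African green monkey kidney) co-transfected with receptor plasmid and hormone-responsive firefly luciferase reporter, agonism read as compound-dependent rise in luciferase signal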
[5] = biological target: T3, AR (Rattus norvegicus, UniProt P15207); experiment: Immature castrated male rat model (antiandrogen activity); type: in vivo, rats (Sprague-Dawley); conditions: for %SV growth / %VP growth: 0 mg TP = 100; for SV (wet wt): seminal vesicles
T3 construct: from tissue; host or cells: live Sprague-Dawley rats; ventral prostate and seminal vesicles weighed
T3 sequence (P15207 1-902): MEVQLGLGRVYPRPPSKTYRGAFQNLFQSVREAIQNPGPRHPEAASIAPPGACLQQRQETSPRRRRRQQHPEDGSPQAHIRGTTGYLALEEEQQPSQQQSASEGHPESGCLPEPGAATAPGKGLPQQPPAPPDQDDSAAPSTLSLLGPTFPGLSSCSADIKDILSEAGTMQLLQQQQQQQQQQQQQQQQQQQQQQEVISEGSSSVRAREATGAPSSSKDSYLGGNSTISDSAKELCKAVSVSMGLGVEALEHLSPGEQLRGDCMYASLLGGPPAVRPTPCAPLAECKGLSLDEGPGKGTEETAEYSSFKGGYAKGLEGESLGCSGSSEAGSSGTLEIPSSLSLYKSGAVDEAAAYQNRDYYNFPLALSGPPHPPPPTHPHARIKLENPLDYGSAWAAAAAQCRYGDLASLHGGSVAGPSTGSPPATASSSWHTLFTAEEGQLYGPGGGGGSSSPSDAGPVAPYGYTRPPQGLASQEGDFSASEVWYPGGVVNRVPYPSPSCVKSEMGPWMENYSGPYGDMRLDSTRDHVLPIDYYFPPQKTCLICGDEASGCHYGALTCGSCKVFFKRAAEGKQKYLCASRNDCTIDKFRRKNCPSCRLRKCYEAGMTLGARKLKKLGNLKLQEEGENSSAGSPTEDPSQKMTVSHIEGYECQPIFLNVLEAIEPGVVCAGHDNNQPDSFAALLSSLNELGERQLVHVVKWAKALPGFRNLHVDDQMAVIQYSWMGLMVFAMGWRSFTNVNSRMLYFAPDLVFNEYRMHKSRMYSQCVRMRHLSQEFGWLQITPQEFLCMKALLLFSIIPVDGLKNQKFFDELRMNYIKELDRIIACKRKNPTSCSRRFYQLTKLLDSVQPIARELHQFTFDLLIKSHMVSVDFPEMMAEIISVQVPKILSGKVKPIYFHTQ
Excerpt: Since the male sex organs are the tissues most responsive to modulation of androgen activity, this model is used to determine the androgen-dependent growth of the sex accessory organs in immature castrated rats.
At the end of the 3-day treatment, the animals were sacrificed, and the ventral prostates (VP) and seminal vesicles (SV) were collected and weighed. To compare data from different experiments, the sexual organ weights were first standardized as mg per 100 g of body weight, and the increase in organ weight induced by TP was considered as the maximum increase (100%). Super-anova (one factor) was used for statistical analysis.

[6] = biological target: T4, ER (Homo sapiens, UniProt P03372); experiment: Co-transfection assay, ER antagonist activity; type: cell-based; conditions: for ER Antagonist CV-1 Cells Efficacy (%): percent maximal inhibition, estradiol at its EC50
T4 construct: expressed in transfected cells; host or cells: CV-1 cells, transient transfection, with MTV-ERE5-LUC reporter
T4 sequence (P03372 whole entry): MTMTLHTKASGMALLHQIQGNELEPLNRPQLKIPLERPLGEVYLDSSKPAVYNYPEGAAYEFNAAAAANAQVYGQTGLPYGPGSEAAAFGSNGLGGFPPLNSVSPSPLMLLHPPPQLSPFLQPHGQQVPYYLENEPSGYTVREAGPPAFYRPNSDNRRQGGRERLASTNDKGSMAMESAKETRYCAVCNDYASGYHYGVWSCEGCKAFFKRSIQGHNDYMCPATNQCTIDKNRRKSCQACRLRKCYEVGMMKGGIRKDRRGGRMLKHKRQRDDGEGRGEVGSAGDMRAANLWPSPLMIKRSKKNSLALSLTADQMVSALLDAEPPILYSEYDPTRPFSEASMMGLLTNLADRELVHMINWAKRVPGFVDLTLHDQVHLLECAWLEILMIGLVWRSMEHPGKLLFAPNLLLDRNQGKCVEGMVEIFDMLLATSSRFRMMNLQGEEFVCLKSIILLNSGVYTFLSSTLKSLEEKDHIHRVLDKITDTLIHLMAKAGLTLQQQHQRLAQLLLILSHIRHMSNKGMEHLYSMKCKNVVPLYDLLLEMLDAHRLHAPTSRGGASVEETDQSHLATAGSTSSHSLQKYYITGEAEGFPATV

[7] = CV-1, read-out: AR Antagonist CV-1 Cells Efficacy (%)
[8] = CV-1, read-out: AR Agonist CV-1 Cells Efficacy (%)
[9] = CV-1 cells; percent maximal inhibition, DHT at its EC50
[10] = CV-1 cells; relative to reference agonist DHT
[11] = 0.01 mg TP once daily for 3 days
[12] = 0.03 mg TP once daily for 3 days
[13] = 0.1 mg TP once daily for 3 days
[14] = 0.3 mg TP once daily for 3 days

T1 sequence (P10275 whole entry): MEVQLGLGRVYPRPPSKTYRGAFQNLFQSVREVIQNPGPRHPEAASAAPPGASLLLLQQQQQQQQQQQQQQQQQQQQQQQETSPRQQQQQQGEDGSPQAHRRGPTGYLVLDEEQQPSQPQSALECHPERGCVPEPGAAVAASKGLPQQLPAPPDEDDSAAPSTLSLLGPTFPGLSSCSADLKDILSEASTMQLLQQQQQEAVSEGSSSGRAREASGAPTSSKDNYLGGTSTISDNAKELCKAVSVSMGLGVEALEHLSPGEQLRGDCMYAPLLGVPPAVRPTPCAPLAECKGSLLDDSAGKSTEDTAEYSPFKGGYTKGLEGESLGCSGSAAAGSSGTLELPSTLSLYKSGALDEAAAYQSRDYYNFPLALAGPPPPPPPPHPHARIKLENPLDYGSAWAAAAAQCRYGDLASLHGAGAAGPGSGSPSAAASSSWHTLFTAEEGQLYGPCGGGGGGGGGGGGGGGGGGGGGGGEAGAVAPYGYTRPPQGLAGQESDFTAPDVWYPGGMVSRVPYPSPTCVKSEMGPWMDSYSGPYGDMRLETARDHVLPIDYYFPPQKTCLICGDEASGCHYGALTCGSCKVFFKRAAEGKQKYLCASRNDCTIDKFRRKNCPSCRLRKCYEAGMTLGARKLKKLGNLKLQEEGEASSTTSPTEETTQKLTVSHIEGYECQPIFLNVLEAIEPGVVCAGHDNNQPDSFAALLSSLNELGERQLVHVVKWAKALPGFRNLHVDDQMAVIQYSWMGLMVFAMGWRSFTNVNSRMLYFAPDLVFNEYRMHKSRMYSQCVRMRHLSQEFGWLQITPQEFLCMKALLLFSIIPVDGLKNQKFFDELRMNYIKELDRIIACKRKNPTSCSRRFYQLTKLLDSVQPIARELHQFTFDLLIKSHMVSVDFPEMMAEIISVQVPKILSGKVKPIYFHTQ

With `CC1C(=O)C(C)(C)Nc2cc3[nH]c(=O)cc(C(F)(F)F)c3cc21` (racemic) [Compound 418, (R/S)-1,2,3,4-tetrahydro-6-trifluoromethyl-2,2,4-trimethyl-8-pyridono[5,6-f]-3-quinolinone] the Emax [1, 7] was 63% and the Emax [2, 8] was under 20%.

Compound `CC1CC(C)(C)Nc2cc3oc(=O)cc(-c4ccoc4)c3cc21` (racemic) [Compound 405, (R/S)-5-(3-Furyl)-1,2,3,4-tetrahydro-2,2,4-trimethyl-8-pyranono[5,6-g]quinoline] has an Emax [1, 7] of 89% and an Emax [2, 8] of under 20%.

For `O=c1cc(C(F)(F)F)c2cc3c(cc2[nH]1)NCC3` [Compound 419, 5-Trifluoromethyl-7-pyridono[5,6-e]indoline], the “AR Antagonist CV-1 Cells Efficacy (%)” value [1, 9] was 74% and the “AR Agonist CV-1 Cells Efficacy (%)” value [2, 10] was 29%.

In the case of `CC1(C)CNc2cc3[nH]c(=O)cc(C(F)(F)F)c3cc2C1` [Compound 437, 1,2,3,4-Tetrahydro-3,3-dimethyl-6-trifluoromethyl-8-pyridono[5,6-g]quinoline], the Emax ([1]; CV-1; read-out: AR Antagonist CV-1 Cells Efficacy (%)) is reported as 72% and the Emax ([2]; CV-1; read-out: AR Agonist CV-1 Cells Efficacy (%)) is reported as under 20%.

For `CC1CC(C)(C)Nc2cc3[nH]c(=O)cc(C(F)(F)F)c3cc21` (racemic) [Compound 260, 1,2,3,4-Tetrahydro-2,2,4-trimethyl-6-trifluoromethyl-8-pyridono[5,6-g]quinoline], the IC50 [3] was 230 nM, the EC50 [4] was over 10000 nM and the “AR Antagonist CV-1 Cells Efficacy (%)” value [1, 9] was 53%.

With `CCC(=O)O[C@H]1CC[C@H]2[C@@H]3CCC4=CC(=O)CC[C@]4(C)[C@H]3CC[C@]12C` [TP, Testosterone Propionate] the “%SV growth” value [5, 11] was 165.1%, the “%VP growth” value [5, 11] was 146.5% and the “VP (wet wt)” value ([5]; 0.01 mg TP once daily for 3 days, castrated immature rats, ventral prostate (organ weights standardized as mg per 100 g body weight)) was 15.4±0.6. The “SV (wet wt)” value [5, 11] was 12.3±0.8, the “%SV growth” value [5, 12] was 369.5% and the “%VP growth” value [5, 12] was 224.1%. For the same compound, the “SV (wet wt)” value [5, 12] was 27.5±0.8, the “VP (wet wt)” value ([5]; 0.03 mg TP once daily for 3 days, ventral prostate) was 23.5±1.3 and the “SV (wet wt)” value ([5]; 0.1 mg TP once daily for 3 days (Table 8)) was 42.0±2.0. For the same compound, the “VP (wet wt)” value ([5]; 0.1 mg TP once daily for 3 days (Table 8), ventral prostate) was 35.3±2.1, the “%SV growth” value [5, 13] was 563.8% and the “%VP growth” value [5, 13] was 337.0%. The “%SV growth” value [5, 14] was 616.1%, the “%VP growth” value [5, 14] was 415.9% and the “SV (wet wt)” value [5, 14] was 45.9±1.9. For the same compound, the “VP (wet wt)” value ([5]; 0.3 mg TP once daily for 3 days, ventral prostate) was 43.6±1.1, the “%SV growth” value ([5]; 1 mg TP once daily for 3 days) was 684.6% and the “%VP growth” value ([5]; 1 mg TP once daily for 3 days) was 427.4%. For the same compound, the “SV (wet wt)” value ([5]; 1 mg TP once daily for 3 days) was 51.0±5.4, the “VP (wet wt)” value ([5]; 1 mg TP once daily for 3 days, ventral prostate) was 44.8±3.7 and the “SV wt (% of TP (0.1) control)” value ([5]; TP (0.1) alone (Table 9)) was 100%. The “VP wt (% of TP (0.1) control)” value ([5]; TP (0.1) alone (Table 9)) was 100%, the “SV (wet wt)” value ([5]; TP (0.1) alone (Table 9), 3 days) was 33.6±4.0 and the “VP (wet wt)” value ([5]; TP (0.1) alone (Table 9), 3 days, ventral prostate) was 25.5±1.2. The “EC50 (increase in organ wet weights)” value ([5]; immature castrated rats, dosing for 3 days, VP and SV) was about 0.03 mg.

For `CC1=CC(C)(C)Nc2cc3[nH]c(=O)cc(C(F)(F)F)c3cc21` [Compound 247, 1,2-Dihydro-2,2,4-trimethyl-6-trifluoromethyl-8-pyridono[5,6-g]quinoline], the “AR Antagonist CV-1 Cells Efficacy (%)” value [1, 9] was 69% and the “AR Agonist CV-1 Cells Efficacy (%)” value [2, 10] was 23%.

Work on `CC1=CC(C)(C)N(C)c2cc3oc(=O)cc(C(F)(F)F)c3cc21` [Compound 265, 1,2-Dihydro-1,2,2,4-tetramethyl-6-trifluoromethyl-8-pyranono[5,6-g]quinoline] yielded an Emax [1, 7] of 78% and an Emax [2, 8] of under 20%.

With `CC1=CC(C)(C)Nc2cc3oc(=O)cc(C(F)(F)C(F)(F)F)c3cc21` [Compound 256, 1,2-Dihydro-2,2,4-trimethyl-6-(1,1,2,2,2-pentafluoroethyl)-8-pyranono[5,6-g]quinoline] the Emax [1, 7] was 91% and the Emax [2, 8] was under 20%.

`CCC1CCNc2cc3oc(=O)cc(C(F)(F)F)c3cc21` (racemic) [Compound 414, (R/S)-4-Ethyl-1,2,3,4-tetrahydro-6-trifluoromethyl-8-pyranono[5,6-g]quinoline] gave an Emax [1, 7] of under 20% and an Emax [2, 8] of 118%.

In the case of `CC1=CC(C)(C)Nc2ccc3c(c21)C(c1cccc(F)c1)Oc1ccccc1-3` (racemic) [Compound 191, (R/S)-5-(3-Fluorophenyl)-1,2-dihydro-2,2,4-trimethyl-5H-chromeno[3,4-f]quinoline], the Emax ([3]; CV-1, read-out: PR Antagonist CV-1 Cells Efficacy (%)) is reported as 74%, the Emax ([4]; CV-1, read-out: PR Agonist CV-1 Cells Efficacy (%)) is reported as 26% and the IC50 [1] is reported as 520 nM. For the same compound, the IC50 [6] was 330 nM and the “ER Antagonist CV-1 Cells Efficacy (%)” value [6] was 93%.

In the case of `COc1cccc(C2Oc3ccccc3-c3ccc4c(c32)C(C)=CC(C)(C)N4)c1` (racemic) [Compound 194, (R/S)-1,2-Dihydro-5-(3-methoxyphenyl)-2,2,4-trimethyl-5H-chromeno[3,4-f]quinoline], the IC50 [6] is reported as 390 nM and the “ER Antagonist CV-1 Cells Efficacy (%)” value [6] is reported as 94%.

`CC1=CC(C)(C)Nc2cc3oc(=O)cc(C(F)(F)F)c3cc21` [Compound 238, 1,2-Dihydro-2,2,4-trimethyl-6-trifluoromethyl-8-pyranono[5,6-g]quinoline] gave an Emax [1, 7] of under 20% and an Emax [2, 8] of 96%.
